From US8529889B2, “Methods and compositions related to the modulation of intercellular junctions” (Massachusetts Institute of Technology, priority 2004, dated 2013) come the findings set out here.

“Also recorded” adds a separate entry of the source.

Test [1] deals with MCF-7 (human mammary cancer) cells. As to the kind of experiment: Tight junction disruption in MCF-7 cells. The format is cell-based. How it is done: (§1) Heparinase III (hep III) was made as described previously (Godavarti R et al., 1996); heparinase I (hep I) was a generous gift from Momenta pharmaceuticals (Cambridge, Mass.); chondroitinase ABC (C-ABC) lyase was purchased from Seikagaku (East Falmouth, Mass.). Hep III was added to the apical side of the cells at a concentration of 10 μg/mL; hep I was added at a concentration of 6 μg/mL, and C-ABC was added at 50 μU/mL. The concentration of ethylene glycol tetra acetic acid (EGTA) (Sigma) used was 5 mM. All the enzymes and the EGTA were made up in serum free Eagle's Minimal Essential medium with 2 mM L-glutamine. Heparin solution was made up to a concentration of 15 mM in serum free media and added to the apical side of the cells after removing the cell medium. Ardeparin sodium and ardeparin calcium powder were added to cells at 6 mg/well, and ardeparin solution was made up to a final concentration of 18 mM.
(§2) Cells grown on glass coverslips were fixed with 10% buffered formalin for 10 min. Cells were then permeabilized with 0.5% Triton-100 (Sigma) in Tris Buffer Saline with 1% Tween-20 (TBST) for 15 min. at room temperature. Nonspecific antibody binding was blocked with 0.1% bovine serum albumin (BSA) for 30 min. at room temperature. The cells were incubated with primary antibody at room temperature for 4 hours and washed 3 times with PBS. The cells were then incubated in the appropriate secondary antibody for 1 hour in the dark at room temperature and washed 3 times with PBS.

The subject of test [2] is calu-3 human lung adenocarcinoma epithelial cells. As to the kind of experiment: Tight junction (ZO-1) and actin filament disruption by immunofluorescence and confocal microscopy, calu-3. The format is cell-based. As to conditions: calu-3 cells. The protocol: as §1, §2
Calu-3 cells were seeded on gelatin coated coverslips and were allowed to grow for about 4 to 5 days to about 80% confluency. UFH powder was added to the apical side of the cells using an insufflator to ensure homogenous distribution of the powder on the coverslip.

Test [3] has as its system 16HBE14O-human virally transformed bronchial epithelial cells. Briefly: Tight junction (ZO-1) disruption by immunofluorescence and confocal microscopy, 16HBE14O-. The format is cell-based. The note with it: 16HBE14O- cells; for disruption of ZO-1 / tight junctions (epithelial permeability): hep III 10 μg/mL, hep I 6 μg/mL, C-ABC 50 μU/mL, EGTA 5 mM, 20 min. at 37° C. How it is done: as §1, §2
16HBE14O-cells were grown to confluency on fibronectin coated coverslips for 4 to 5 days after seeding. The cells were then incubated with hep III, hep I, C-ABC and EGTA made up to the final concentration described above for 20 min. at 37° C. Using the primary rabbit anti-ZO-1 antibody and the secondary goat anti-rabbit Texas Red antibody, the cells were analyzed by the immunofluorescence and confocal microscopy technique discussed above. […] Localization of the tight junction protein in untreated cells is also shown as a control.

For test [4], the system named is caco-2 (human colon adenocarcinoma) cells. As to the kind of experiment: Tight junction disruption in caco-2 cells. The format is cell-based. The protocol: as §1, §2
The test system of another test is syndecan-4. As to the kind of experiment: Syndecan-4 ectodomain shedding, dot immunoassay, 16HBE14O- cells. The format is cell-based, human. As to conditions: hep III 10 μg/mL, hep I 6 μg/mL, C-ABC 50 μU/mL. How it is done: as §1
(§3) Specificity and quantification of the dot immunoassay for shed syndecan-1 and -4 ectodomains has been previously described in detail (Subramanian et al., 1997). In brief, the conditioned media were diluted in buffer A (0.15 M NaCl buffered to pH 4.5 with 50 mM sodium acetate and with 0.1% Triton X-100) and applied to catonic polyvinylidine diflouride-based membranes (Immobilin-N) (Millipore, Bedford, Mass.) under mild vacuum in an immunodot apparatus (V&P Scientific, San Diego, Calif.). […]
(§4) Detection was by the ECL system (Amersham) as described by the manufacturer. Results were quantified by scanning the exposed membrane with a Kodak Image Station.
(§5) 16HBE14O-cells were grown to about 80% confluency in 6 well plates. […] To evaluate the changes in cell number, the cells were trypsinized and counted with a coulter-counter after incubation. […] The membranes were then incubated in mouse anti-syndecan-1 and in the appropriate secondary antibody and were developed and analyzed as described above. […]

The next test relates to syndecan-1. Briefly: Syndecan-1 ectodomain shedding, dot immunoassay, 16HBE14O- cells. As to conditions: hep III 10 μg/mL, hep I 6 μg/mL, C-ABC 50 μU/mL. The format is cell-based, human. How it is done: as §1, §3, §4, §5

On to `O=C(O)CN(CCOCCOCCN(CC(=O)O)CC(=O)O)CC(=O)O` [EGTA, ethylene glycol tetra acetic acid, reference compound], for which the “tight junction disruption (epithelial permeability)” value (from here on “tight junction disruption”) in test [1] and in test [4] was “caused a disruption of the junctional complex” in each case. Besides, the “time for cell line to recover from the effect of the treatment” value in test [1], in test [2], in test [3] and in test [4] was “about 8 hours” each time. Besides, the “disruption of ZO-1 / tight junctions (epithelial permeability)” value (shortened to “disruption of ZO-1 / tight junctions”) is given as “caused a disruption of the junctional complex” in test [2] and “caused a disruption of the junctional complex; also recorded: cause different amounts of disruption of the tight junctions” in test [3].
On to chondroitinase ABC [cABC], for which the syndecan-4 ectodomain shedding result with syndecan-4 was “did not cause an increase in syndecan-4 ectodomain shedding”. For the same molecule, the “tight junction disruption” value in test [1] is “Hep III had more effect on tight junction disruption than cABC and Hep I”; in test [4], “Hep III had more effect on tight junction disruption than cABC and Hep I”. Moreover, the “disruption of ZO-1 / tight junctions” value in test [2] is given as “more effect than Hep I”; in test [3] it was “more pronounced effect than Hep III”; in test [3] (listed as C-ABC), “cause different amounts of disruption of the tight junctions”. Moreover, the syndecan-1 ectodomain shedding entry in the test on syndecan-1 was “causes syndecan-1 ectodomain shedding”.

B1: heparinase III (protein, UniProt Q59289 25-659, looked up)
Heparin-sulfate lyase: QSSSITRKDFDHINLEYSGLEKVNKAVAAGNYDDAAKALLAYYREKSKAREPDFSNAEKPADIRQPIDKVTREMADKALVHQFQPHKGYGYFDYGKDINWQMWPVKDNEVRWQLHRVKWWQAMALVYHATGDEKYAREWVYQYSDWARKNPLGLSQDNDKFVWRPLEVSDRVQSLPPTFSLFVNSPAFTPAFLMEFLNSYHQQADYLSTHYAEQGNHRLFEAQRNLFAGVSFPEFKDSPRWRQTGISVLNTEIKKQVYADGMQFELSPIYHVAAIDIFLKAYGSAKRVNLEKEFPQSYVQTVENMIMALISISLPDYNTPMFGDSWITDKNFRMAQFASWARVFPANQAIKYFATDGKQGKAPNFLSKALSNAGFYTFRSGWDKNATVMVLKASPPGEFHAQPDNGTFELFIKGRNFTPDAGVFVYSGDEAIMKLRNWYRQTRIHSTLTLDNQNMVITKARQNKWETGNNLDVLTYTNPSYPNLDHQRSVLFINKKYFLVIDRAIGEATGNLGVHWQLKEDSNPVFDKTKNRVYTTYRDGNNLMIQSLNADRTSLNEEEGKVSYVYNKELKRPAFVFEKPKKNAGTQNFVSIVYPYDGQKAPEISIRENKGNDFEKGKLNLTLTINGKQQLVLVP
notes: Glycosaminoglycan-degrading enzyme; cleaves the less/unsulfated, heparan sulfate-like regions
In the case of B1, in the test with syndecan-4, the syndecan-4 ectodomain shedding result is given as “did not cause an increase in syndecan-4 ectodomain shedding”. Besides, the “tight junction disruption” value in test [1] is “more effect on tight junction disruption than cABC and Hep I”; in test [4], “more effect on tight junction disruption than cABC and Hep I”. Moreover, the “disruption of ZO-1 / tight junctions” value is “more effect than Hep I” in test [2]; “Hep I and cABC had more pronounced effect than Hep III” in test [3]; “cause different amounts of disruption of the tight junctions” in test [3] (listed as hep III). Besides, the syndecan-1 ectodomain shedding result with syndecan-1 is on record as “causes syndecan-1 ectodomain shedding”.

B2: heparinase I (protein, UniProt Q05819 22-384, looked up)
Heparin lyase I: QQKKSGNIPYRVNVQADSAKQKAIIDNKWVAVGINKPYALQYDDKLRFNGKPSYRFELKAEDNSLEGYAAGETKGRTELSYSYATTNDFKKFPPSVYQNAQKLKTVYHYGKGICEQGSSRSYTFSVYIPSSFPDNATTIFAQWHGAPSRTLVATPEGEIKTLSIEEFLALYDRMIFKKNIAHDKVEKKDKDGKITYVAGKPNGWKVEQGGYPTLAFGFSKGYFYIKANSDRQWLTDKADRNNANPENSEVMKPYSSEYKTSTIAYKMPFAQFPKDCWITFDVAIDWTKYGKEANTILKPGKLDVMMTYTKNKKPQKAHIVNQQEILIGRNDDDGYYFKFGIYRVGNSTVPVTYNLSGYSETAR
notes: Glycosaminoglycan-degrading enzyme; cleaves HSGAGs at the more sulfated, heparin-like regions
Consider B2, for which, in the test on syndecan-4, the syndecan-4 ectodomain shedding entry was “did not cause an increase in syndecan-4 ectodomain shedding”. Besides, the “tight junction disruption” value in test [1] is “Hep III had more effect on tight junction disruption than cABC and Hep I”; in test [4], “Hep III had more effect on tight junction disruption than cABC and Hep I”. Moreover, the “disruption of ZO-1 / tight junctions” value is “Hep III and cABC had more effect than Hep I” in test [2]; “more pronounced effect than Hep III” in test [3]; “cause different amounts of disruption of the tight junctions” in test [3] (listed as hep I). Further, the syndecan-1 ectodomain shedding result with syndecan-1 is given as “causes syndecan-1 ectodomain shedding”.
